Measurements published in the supplement of paper PMC10307832.

Key:
Test in all cases: relative viability (nuclei count vs DMSO), 5 days (fraction); higher = more cells survive
HCC-366 = system: HCC-366
Method in brief: (§1)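 Each reported value is a median over duplicate plates. It expresses relative viability: treated-well nuclei count divided by vehicle-well nuclei count. Lung cancer cell lines in 1536-well plates were dosed by pin tool a day after seeding, alone with one drug or with a fixed anchor-drug dose plus five library-drug doses (not always all listed) in √10 steps, and nuclei were counted after 5 days.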

NCI-H460 = system: NCI-H460
Method in brief: as §1

NCI-H1651 = system: NCI-H1651
Method in brief: as §1

NCI-H1755 = system: NCI-H1755
Method in brief: as §1

ABC-1 = system: ABC-1
Method in brief: as §1

NCI-H2228 = system: NCI-H2228
Method in brief: as §1

CAL-12T = system: CAL-12T
Method in brief: as §1

PC-3 [JPC-3] = system: PC-3 [JPC-3]
Method in brief: as §1

NCI-H2405 = system: NCI-H2405
Method in brief: as §1

LOU-NH91 = system: LOU-NH91
Method in brief: as §1

RERF-LC-KJ = system: RERF-LC-KJ
Method in brief: as §1

NCI-H2170 = system: NCI-H2170
Method in brief: as §1

NCI-H2087 = system: NCI-H2087
Method in brief: as §1

UMC-11 = system: UMC-11
Method in brief: as §1

NCI-H3122 = system: NCI-H3122
Method in brief: as §1

NCI-H1734 = system: NCI-H1734
Method in brief: as §1

NCI-H1395 = system: NCI-H1395
Method in brief: as §1

NCI-H1944 = system: NCI-H1944
Method in brief: as §1

NCI-H1793 = system: NCI-H1793
Method in brief: as §1

HCC-78 = system: HCC-78
Method in brief: as §1

LC-2-ad = system: LC-2-ad
Method in brief: as §1

LU99A = system: LU99A
Method in brief: as §1

## CC1(C)CCC(c2ccc(Cl)cc2)=C(CN2CCN(c3ccc(C(=O)NS(=O)(=O)c4ccc(N[C@H](CCN5CCOCC5)CSc5ccccc5)c(S(=O)(=O)C(F)(F)F)c4)cc3)CC2)C1 [Navitoclax] + CS(=O)(=O)CCNCc1ccc(-c2ccc3ncnc(Nc4ccc(OCc5cccc(F)c5)c(Cl)c4)c3c2)o1 [Lapatinib] (partner 2 µM)
HCC-366; first compound 0.005 µM
  relative viability: 1
HCC-366; first compound 0.01581 µM
  relative viability: 1.16
HCC-366; first compound 0.05 µM
  relative viability: 0.348
HCC-366; first compound 0.1581 µM
  relative viability: 1.04
HCC-366; first compound 0.5 µM
  relative viability: 1.08
NCI-H460; first compound 0.005 µM
  relative viability: 0.909
NCI-H460; first compound 0.01581 µM
  relative viability: 0.917
NCI-H460; first compound 0.05 µM
  relative viability: 1.09
NCI-H460; first compound 0.1581 µM
  relative viability: 0.892
NCI-H460; first compound 0.5 µM
  relative viability: 0.905
NCI-H1651; first compound 0.005 µM
  relative viability: 0.767
NCI-H1651; first compound 0.01581 µM
  relative viability: 0.984
NCI-H1651; first compound 0.1581 µM
  relative viability: 0.803
NCI-H1651; first compound 0.5 µM
  relative viability: 0.837
NCI-H1755; first compound 0.005 µM
  relative viability: 1.04
NCI-H1755; first compound 0.01581 µM
  relative viability: 1.13
NCI-H1755; first compound 0.05 µM
  relative viability: 0.836
NCI-H1755; first compound 0.1581 µM
  relative viability: 0.984
NCI-H1755; first compound 0.5 µM
  relative viability: 1.02
ABC-1; first compound 0.005 µM
  relative viability: 1.1
ABC-1; first compound 0.01581 µM
  relative viability: 1.46
ABC-1; first compound 0.05 µM
  relative viability: 1.09
ABC-1; first compound 0.1581 µM
  relative viability: 1.19
ABC-1; first compound 0.5 µM
  relative viability: 1.05
NCI-H2228; first compound 0.005 µM
  relative viability: 1.09
NCI-H2228; first compound 0.01581 µM
  relative viability: 0.9
NCI-H2228; first compound 0.05 µM
  relative viability: 1.14
NCI-H2228; first compound 0.1581 µM
  relative viability: 0.893
NCI-H2228; first compound 0.5 µM
  relative viability: 1.03
CAL-12T; first compound 0.005 µM
  relative viability: 0.751
CAL-12T; first compound 0.01581 µM
  relative viability: 0.504
CAL-12T; first compound 0.05 µM
  relative viability: 0.589
CAL-12T; first compound 0.1581 µM
  relative viability: 0.738
CAL-12T; first compound 0.5 µM
  relative viability: 0.637
PC-3 [JPC-3]; first compound 0.005 µM
  relative viability: 0.403
PC-3 [JPC-3]; first compound 0.01581 µM
  relative viability: 0.438
PC-3 [JPC-3]; first compound 0.05 µM
  relative viability: 0.441
PC-3 [JPC-3]; first compound 0.1581 µM
  relative viability: 0.474
PC-3 [JPC-3]; first compound 0.5 µM
  relative viability: 0.487
NCI-H2405; first compound 0.005 µM
  relative viability: 1.03
NCI-H2405; first compound 0.01581 µM
  relative viability: 1.29
NCI-H2405; first compound 0.05 µM
  relative viability: 1.19
NCI-H2405; first compound 0.1581 µM
  relative viability: 1.02
NCI-H2405; first compound 0.5 µM
  relative viability: 0.927
LOU-NH91; first compound 0.005 µM
  relative viability: 0.802
LOU-NH91; first compound 0.01581 µM
  relative viability: 0.858
LOU-NH91; first compound 0.05 µM
  relative viability: 0.756
LOU-NH91; first compound 0.1581 µM
  relative viability: 0.681
LOU-NH91; first compound 0.5 µM
  relative viability: 0.549
RERF-LC-KJ; first compound 0.005 µM
  relative viability: 0.857
RERF-LC-KJ; first compound 0.01581 µM
  relative viability: 0.809
RERF-LC-KJ; first compound 0.05 µM
  relative viability: 0.75
RERF-LC-KJ; first compound 0.1581 µM
  relative viability: 0.852
RERF-LC-KJ; first compound 0.5 µM
  relative viability: 0.884
NCI-H2170; first compound 0.005 µM
  relative viability: 0.275
NCI-H2170; first compound 0.01581 µM
  relative viability: 0.283
NCI-H2170; first compound 0.05 µM
  relative viability: 0.312
NCI-H2170; first compound 0.1581 µM
  relative viability: 0.285
NCI-H2170; first compound 0.5 µM
  relative viability: 0.26
NCI-H2087; first compound 0.005 µM
  relative viability: 1.15
NCI-H2087; first compound 0.01581 µM
  relative viability: 1.06
NCI-H2087; first compound 0.05 µM
  relative viability: 0.837
NCI-H2087; first compound 0.1581 µM
  relative viability: 0.925
NCI-H2087; first compound 0.5 µM
  relative viability: 1.02
UMC-11; first compound 0.005 µM
  relative viability: 0.862
UMC-11; first compound 0.01581 µM
  relative viability: 1.02
UMC-11; first compound 0.05 µM
  relative viability: 0.747
UMC-11; first compound 0.1581 µM
  relative viability: 0.858
UMC-11; first compound 0.5 µM
  relative viability: 0.481
NCI-H3122; first compound 0.005 µM
  relative viability: 0.998
NCI-H3122; first compound 0.01581 µM
  relative viability: 0.991
NCI-H3122; first compound 0.05 µM
  relative viability: 1.03
NCI-H3122; first compound 0.1581 µM
  relative viability: 0.892
NCI-H3122; first compound 0.5 µM
  relative viability: 1.02
NCI-H1734; first compound 0.005 µM
  relative viability: 1.09
NCI-H1734; first compound 0.01581 µM
  relative viability: 1.16
NCI-H1734; first compound 0.1581 µM
  relative viability: 0.973
NCI-H1734; first compound 0.5 µM
  relative viability: 1.09
NCI-H1395; first compound 0.005 µM
  relative viability: 0.831
NCI-H1395; first compound 0.01581 µM
  relative viability: 1.18
NCI-H1395; first compound 0.05 µM
  relative viability: 1.13
NCI-H1395; first compound 0.1581 µM
  relative viability: 1.17
NCI-H1395; first compound 0.5 µM
  relative viability: 1.06
NCI-H1944; first compound 0.005 µM
  relative viability: 0.869
NCI-H1944; first compound 0.01581 µM
  relative viability: 0.871
NCI-H1944; first compound 0.05 µM
  relative viability: 0.629
NCI-H1944; first compound 0.1581 µM
  relative viability: 0.788
NCI-H1944; first compound 0.5 µM
  relative viability: 0.833
NCI-H1793; first compound 0.005 µM
  relative viability: 0.601
NCI-H1793; first compound 0.01581 µM
  relative viability: 0.779
NCI-H1793; first compound 0.05 µM
  relative viability: 0.467
NCI-H1793; first compound 0.1581 µM
  relative viability: 0.843
NCI-H1793; first compound 0.5 µM
  relative viability: 0.557
HCC-78; first compound 0.005 µM
  relative viability: 0.704
HCC-78; first compound 0.01581 µM
  relative viability: 0.987
HCC-78; first compound 0.1581 µM
  relative viability: 0.75
HCC-78; first compound 0.5 µM
  relative viability: 0.76
LC-2-ad; first compound 0.005 µM
  relative viability: 0.936
LC-2-ad; first compound 0.01581 µM
  relative viability: 1.02
LC-2-ad; first compound 0.05 µM
  relative viability: 0.898
LC-2-ad; first compound 0.1581 µM
  relative viability: 1.01
LC-2-ad; first compound 0.5 µM
  relative viability: 0.96
LU99A; first compound 0.005 µM
  relative viability: 0.985
LU99A; first compound 0.01581 µM
  relative viability: 1.19
LU99A; first compound 0.05 µM
  relative viability: 0.977
LU99A; first compound 0.1581 µM
  relative viability: 1.04
LU99A; first compound 0.5 µM
  relative viability: 1.07
